Measurements as given in US20260240834A1, “METHODS OF TREATING CANCER” (XRad Holding Cayman Limited, priority 2023, published 2026).
Like-named read-outs stand apart in the source and are kept apart here.

How the values were obtained:
[1] = tested on: Capan-1 BRCA2 mutant human pancreatic cell line; assay: CellTiter-Glo (CTG) cell growth inhibition, Capan-1; format: cell-based; details: Capan-1 cells; for IC50: Homo sapiens, 312 h
From the text: (§1) A549 human lung carcinoma cell line, UWB1.289 BRCA1 mutant human ovarian cancer cell line, and UWB1.289+BRCA1 stable cell line derived from UWB1.289, in which wild-type BRCA1 was restored, were obtained from the American Type Culture Collection (ATCC). Capan-1 BRCA2 mutant human pancreatic cell line was obtained from the Duke Cell Culture Facility (Duke University, Durham, NC). HCC1937 BRCA1 mutant breast cancer cell line was obtained from Simon Powell (Memorial-Sloan Kettering, NY, NY). All cell lines were authenticated by short tandem repeat profiling and tested negative for mycoplasma. A549 cells were cultured in RPMI 1640 medium (Gibco), supplemented with 10% fetal bovine serum (FBS) (Corning) and 1× Antibiotic-Antimycotic (A-A) (Gibco). Capan-1 cells were grown in Iscove's Modified Dulbecco's Medium (IMDM) (Gibco), 20% FBS and 1×A-A. HCC1937 cells were grown in Iscove's Modified Dulbecco's Medium, 15% serum, and L-glutamine (2 mM). UWB1.289 and UWB1.289+BRCA1 cells were grown in 50% RPMI 1640 supplemented with 1 mM Sodium Pyruvate, 10 mM HEPES and 4500 mg/L glucose and 50% Mammary Epithelial Growth Medium (MEGM) (Clonetics) with 200 ug/ml G-418 (Gibco) and supplemented with 3% FBS and 1×A-A. All cell lines were grown at 37° C. in 5% CO2. Cell growth inhibition was determined via the CellTiter-Glo (CTG) assay (Promega). […] HCC1937 and UWB1.289 cells were treated with increasing concentrations of Compound A, niraparib, or the combination for 7 days.

[2] = tested on: UWB1.289 BRCA1 mutant human ovarian cancer cell line; assay: Clonogenic survival assay, UWB1.289; format: cell-based; details: UWB1.289 cells, Compound A at 250, 500 or 1000 nM, 8 days
From the text: (§2) A549 human lung carcinoma cell line, UWB1.289 BRCA1 mutant human ovarian cancer cell line, and UWB1.289+BRCA1 stable cell line derived from UWB1.289, in which wild-type BRCA1 was restored, were obtained from the American Type Culture Collection (ATCC). Capan-1 BRCA2 mutant human pancreatic cell line was obtained from the Duke Cell Culture Facility (Duke University, Durham, NC). HCC1937 BRCA1 mutant breast cancer cell line was obtained from Simon Powell (Memorial-Sloan Kettering, NY, NY). All cell lines were authenticated by short tandem repeat profiling and tested negative for mycoplasma. A549 cells were cultured in RPMI 1640 medium (Gibco), supplemented with 10% fetal bovine serum (FBS) (Corning) and 1× Antibiotic-Antimycotic (A-A) (Gibco). Capan-1 cells were grown in Iscove's Modified Dulbecco's Medium (IMDM) (Gibco), 20% FBS and 1×A-A. HCC1937 cells were grown in Iscove's Modified Dulbecco's Medium, 15% serum, and L-glutamine (2 mM). […]
(§3) UWB1.289 and UWB1.289+BRCA1 cells were plated in 6-well plates at 1000 cells/well and treated with DMSO or Compound A at 250, 500 or 1000 nM for 8 days before colonies were counted. For shRNA experiments, A549 cells were treated with DMSO or Compound A at 250, 500 or 1000 nM following transduction of control shRNA or shBRCA2 for 8 days before colonies were counted. […]

[3] = tested on: HCC1937 BRCA1 mutant breast cancer cell line; assay: CellTiter-Glo (CTG) cell growth inhibition, HCC1937; format: cell-based, human; details: HCC1937 cells; for IC50: Homo sapiens, 168 h
From the text: as §1

[4] = tested on: A549 human lung carcinoma cell line, BRCA2 knockdown (shBRCA2); assay: Clonogenic survival assay, A549 with shBRCA2; format: cell-based; details: A549 cells with BRCA2 knockdown, Compound A at 250, 500 or 1000 nM, 8 days
From the text: as §2, §3

[5] = tested on: UWB1.289+BRCA1 stable cell line (wild-type BRCA1 restored); assay: CellTiter-Glo (CTG) cell growth inhibition, UWB1.289+BRCA1; format: cell-based, human; details: for IC50: Homo sapiens, UWB1289, UWB1.289 + BRCA1 cells
From the text: as §1

[6] = tested on: UWB1.289+BRCA1 stable cell line (wild-type BRCA1 restored); assay: Clonogenic survival assay, UWB1.289+BRCA1; format: cell-based, human; details: UWB1.289+BRCA1 cells, Compound A at 250, 500 or 1000 nM, 8 days
From the text: as §2, §3

[7] = tested on: UWB1.289 BRCA1 mutant human ovarian cancer cell line; assay: CellTiter-Glo (CTG) cell growth inhibition, UWB1.289; format: cell-based; details: UWB1.289 cells; for IC50: Homo sapiens
From the text: as §1

[8] = Compound A in combination with niraparib, 7 days

## CC(C)NCCOc1ncc(-c2cc3c4c(cnc3cc2F)N(C)C(=O)C42CCC2)cc1NS(C)(=O)=O [Compound A]
[1]; Compound A in combination with niraparib, 13 days
  CI50 (combination index, method of Chou): 0.5
[1]; single agent, 13 days, CTG, read-out: Single Agent IC50 (mean ± SEM) Compound A
  IC50: 810 ± 80 nM
[2]
  clonogenic survival: exhibited sensitivity to Compound A
[3]; [8]
  CI50 (combination index, method of Chou): 0.3
[3]; single agent, 7 days, CTG, read-out: Single Agent IC50 (mean ± SEM) Compound A
  IC50: 1000 ± 170 nM
[4]
  clonogenic survival: dose-dependent decrease in survival
[5]; single agent, CTG, read-out: Single Agent IC50 (mean ± SEM) Compound A
  IC50: 800 ± 10 nM
[6]
  clonogenic survival: rescued with re-expression of wild-type BRCA1
[7]; [8]
  CI50 (combination index, method of Chou): 0.4
[7]; UWB1289, 168 h, single agent, 7 days, CTG, read-out: Single Agent IC50 (mean ± SEM) Compound A
  IC50: 260 ± 100 nM

## NC(=O)c1cccc2cn(-c3ccc([C@@H]4CCCNC4)cc3)nc12 [Niraparib, niraparib]
[1]; addition of 0.5 μM Compound A
  shift of the dose response curve of niraparib: -5 fold
[1]; 0.5 μM Compound A + increasing concentrations of niraparib for 13 days, read-out: IC50 + 0.5 μM Compound A (mean ± SEM) Niraparib
  IC50: 110 ± 10 nM
[1]; single agent, 13 days, CTG, read-out: Single Agent IC50 (mean ± SEM) Niraparib
  IC50: 550 ± 50 nM
[3]; addition of 0.25 μM Compound A
  shift of the dose response curve of niraparib: 10 fold
[3]; 0.25 μM Compound A + increasing concentrations of niraparib for 7 days, read-out: IC50 + 0.25 μM Compound A (mean ± SEM) Niraparib
  IC50: 380 ± 180 nM
[3]; single agent, 7 days, CTG, read-out: Single Agent IC50 (mean ± SEM) Niraparib
  IC50: 3700 ± 270 nM
[5]; 0.25 μM Compound A + niraparib for 3 days, then niraparib alone for additional 4 days, read-out: IC50 + 0.25 μM Compound A (mean ± SEM) Niraparib
  IC50: 140 ± 20 nM
[5]; single agent, CTG, read-out: Single Agent IC50 (mean ± SEM) Niraparib
  IC50: 1400 ± 110 nM
[5]; UWB1.289+BRCA1 cells, 0.25 μM Compound A for 3 days of a 7-day treatment with niraparib
  shift of the dose response curve of niraparib: 10 fold
[7]; UWB1289, 168 h, single agent, 7 days, CTG, read-out: Single Agent IC50 (mean ± SEM) Niraparib
  IC50: 330 ± 90 nM
[7]; UWB1289, 0.25 μM Compound A + niraparib for 3 days, then niraparib alone for additional 4 days, read-out: IC50 + 0.25 μM Compound A (mean ± SEM) Niraparib
  IC50: < 14 nM
[7]; 0.25 μM Compound A for 3 days of a 7-day treatment with niraparib
  shift of the dose response curve of niraparib: > 23 fold
